These results are taken from patent US20240342152A1, “Method of Treatment” (Vanda Pharmaceuticals Inc., priority 2022, published 2024).

The subject of data set [1] is patients with bipolar I disorder. Put plainly: Phase III clinical study of iloperidone in acute manic and mixed episodes associated with bipolar I disorder. Type of data set: in vivo, adults. As to the method:
In a Phase III clinical study of iloperidone as a treatment of acute manic and mixed episodes associated with bipolar I disorder, approximately 400 volunteers with a history of bipolar disorder and suffering from a current episode of mania are randomized to receive either iloperidone or placebo in a 1:1 ratio. Treatment efficacy is assessed using the Young Mania Rating Scale (YMRS), a known rating scale of clinical severity in the core symptoms of mania, as well as the Clinician Global Impression of Severity (CGI-S) and the Clinician Global Impression of Change (CGI-C).
YMRS assessments are made at baseline and during days 7, 10, 14, 21, and 28 using the following key: • 0=reports no decrease in sleep; • 1=sleeping less than normal amount by up to one hour; • 2=sleeping less than normal by more than one hour; • 3=reports decreased need for sleep; and • 4=denies need for sleep.
Patients receive four weeks of double-blind treatment comprising the administration of 24 mg/d iloperidone b.i.d. (12 mg twice daily), 12 mg/d b.i.d. (6 mg twice daily) for poor metabolizers, or placebo. CYP2D6 non-poor metabolizers are titrated to a clinical dose of 24 mg/day (12 mg twice daily) by administering 1 mg twice per day on day 1, 3 mg twice per day on day 2, 6 mg twice per day on day 3, 9 mg twice per day on day 4, and 12 mg twice per day on day 5 and each day thereafter. CYP2D6 poor metabolizers are titrated to 12 mg/day (6 mg twice daily) by administering 1 mg twice per day on day 1, 3 mg twice per day on day 2, and 6 mg twice per day on day 3 and each day thereafter.

The test system of data set [2] is adults with schizophrenia or bipolar I disorder. Put plainly: Clinical study of tolerability of faster iloperidone titration (orthostatic hypotension monitoring). Type of data set: in vivo. The settings on record: n=12. As to the method: A clinical study of adults (n=12, age 18-65, inclusive) with schizophrenia or bipolar I disorder is conducted to assess the tolerability of a faster iloperidone titration scheme. Patients are assigned to one of two cohorts based on CYP2D6 phenotype.
CYP2D6 non-poor metabolizers are titrated to a clinical dose of 24 mg/day (12 mg twice daily) by administering 1 mg twice per day on day 1, 3 mg twice per day on day 2, 6 mg twice per day on day 3, 9 mg twice per day on day 4, and 12 mg twice per day on day 5. CYP2D6 poor metabolizers are titrated to 12 mg/day (6 mg twice daily) by administering 1 mg twice per day on day 1, 3 mg twice per day on day 2, and 6 mg twice per day on day 3. In each case, the target dose of 24 mg/day or 12 mg/day is continued until day 7.
Patients are monitored for OH by measuring blood pressure after lying supine for three minutes and two minutes after standing. OH is defined as a fall in systolic blood pressure of 20 mmHg or more or a fall in diastolic blood pressure of 10 mmHg or more.
The results are compared to historical placebo data from a prior study of the FDA-approved titration regimen.

In data set [3] the test system is patients with schizophrenia. The settings on record: patients continuing on therapy past the titration period; cited from earlier work.
[4] abbreviates: endpoint (day 28), ITT population, N = 198.

SMILES strings stand for the structures.

Take `COc1cc(C(C)=O)ccc1OCCCN1CCC(c2noc3cc(F)ccc23)CC1` [Iloperidone, 1-[4-[3-[4-(6-fluoro-1,2-benzisoxazol-3-yl)-1-piperidinyl]propoxy]-3-methoxyphenyl]ethanone]: in data set [1] (N = 206), the “Sedation reported as treatment-emergent adverse event” value is 5 (2.4) n (%) and the “Somnolence reported as treatment-emergent adverse event” value was 11 (5.3) n (%). The “Onset of statistically significant YMRS benefit versus placebo” value in data set [1] (YMRS assessment) is listed as “as early as the end of week 2”. Further, in data set [1] (day 28, ITT population, p-value 0.000008), the “YMRS Total Score, Diff (iloperidone vs placebo)” value is −4.0. In data set [1] (day 28, ITT population, p-value 0.0002), the “CGI-C, Diff (iloperidone vs placebo)” value is given as −0.5. In addition, the “CGI-S, Diff (iloperidone vs placebo)” value in data set [1] (day 28, ITT population, p-value 0.0005) is on record as −0.4. In data set [1] (day 28, ITT population, p-value 0.1365), the “MADRS Total Score, Diff (iloperidone vs placebo)” value was −0.9. Moreover, in data set [1] (setting [4]), the CGI-C was determined as 2.3; the “CGI-S, change from baseline” value was −1.5; the “MADRS Total Score, change from baseline” value is listed as −2.7. In data set [1] (endpoint (day 28), ITT population, N = 198, 24 mg/d b.i.d. (12 mg/d for CYP2D6 poor metabolizers)), the “YMRS Total Score, change from baseline” value was −14.0. Also, the “YMRS change associated with SNP rs62300864 (SHROOM3)” value in data set [1] (iloperidone-treated group (n=167), p 1.64 × 10^−6) came to 12.08 ± 2.43. In data set [1] (iloperidone-treated group (n=167), p 2.48 × 10^−6), the “YMRS change associated with SNP rs55837573 (RELN)” value is −4.61 ± 0.94. For the same compound, in data set [1] (iloperidone-treated group (n=167), p 5.27 × 10^−6), the “YMRS change associated with SNP rs76876307 (FAT3)” value was found to be 15.44 ± 3.28. In data set [1] (iloperidone-treated group (n=167), p 6.98 × 10^−6), the “YMRS change associated with SNP rs1118464 (NAV2)” value is −4.15 ± 0.89. For the same compound, the “YMRS sleep component, least squares mean change from baseline to day 28” value in data set [1] (placebo −0.95, p=0.008) is listed as −1.26. Moreover, the “Tolerability of faster titration” value in data set [2] (compared to historical placebo data) is on record as “well-tolerated”. For the same compound, the “Patients meeting orthostatic hypotension (OH) criteria” value in data set [2] (faster titration to 24 mg/day (12 mg/day poor metabolizers), to day 7, OH = fall in systolic ≥20 mmHg or diastolic ≥10 mmHg) is given as “Only one patient receiving iloperidone met the OH criteria”. For the same compound, in data set [2] (faster titration, to day 7), the “Incidents of dizziness, syncope, or accidental trauma” value is on record as “no reported incidents of dizziness, syncope, or accidental trauma” and the Other adverse events result is given as “no other adverse events”. Further, the “Efficacy in treating schizophrenia relative to haloperidol and risperidone” value in data set [3] was “comparable to that of haloperidol and risperidone”.
